We go through 4 compounds from US4996211A, “Substituted dibenzocycloheptenimines” (Merck Sharp & Dohme Ltd., priority 1987, dated 1991).

Where a name gives a salt, the structure may show the parent alone.

In this test the test system is tonic seizures induced by N-methyl-DL-aspartic acid (NMDLA). The test can be described thus: Antagonism of NMDLA-induced tonic seizures in mice. The following applies: Mus musculus, iv; i.v. 15 min before s.c. NMDLA (500 mg/kg); groups of 8 mice, observed 30 min; probit analysis. In kind it is in vivo, mouse (male Swiss-Webster). The method, then: The compounds useful in this invention bind with a high affinity and in a reversible and saturable manner to membranes from rat brain cortex. In addition these compounds potently and selectively block responses to NMDA in a brain slice from rat cortex, and antagonise NMDA-induced seizures in the mouse.
Compounds of the invention were examined for their ability to antagonise tonic seizures induced by N-methyl-DL-aspartic acid (NMDLA). Groups of 8 male Swiss-Webster mice (25-30 g) were injected intravenously with the test compound at various doses, 15 min before s.c. administration of NMDLA (500 mg/kg). […] ED50 values for the antagonism of the NMDLA induced tonic seizures were determined using probit analysis.

The compound `CC12NC(Cc3ccc(-c4ccccc4)cc31)c1ccccc12` (stereo not shown) [Example 6, 5-Methyl-3-phenyl-10,11-dihydro-5H-dibenzo-[a,d]cyclohepten-5,10-imine hydrochloride] registered an ED50 below 10 mg/kg.

In turn, `Cc1ccc2c(c1)C1(C)NC2Cc2ccccc21` (stereo not shown) [Example 1, 5,7-Dimethyl-10.11-dihydro-5H-dibenzo[a,d]cyclohepten-5,10-imine] registered an ED50 below 10 mg/kg.

As for `CC12NC(Cc3ccc(CO)cc31)c1ccccc12` (stereo not shown) [Example 12, 3-HYdroxymethyl-5-methyl-10,11-dihydro-5H-dibenzo-[a,d]cyclohepten-5,10-imine], the ED50 is below 10 mg/kg.

In turn, `Cc1ccc2c(c1)C1(C)NC(C2)c2ccccc21` (stereo not shown) [Example 2, 3.5-Dimethyl-10,11-dihYdro-5H-dibenzo[a,d]cyclohepten-5,10-imine] had an ED50 below 10 mg/kg.
